{"source": "patent US20140018431A1", "about": "(priority 2007, published 2014)", "key": {"airway smooth muscle": {"tested_on": "airway smooth muscle", "conditions": "literature (Belvisi, 1998); cited from earlier work"}, "[1]": {"assay_type": "in vivo, human", "conditions": "patients with PAH, 12-week trial", "method": "The effect of treprostinil (in the form of Remodulin or inhaled treprostinil) on patients is analyzed using the 6-minute walk test with Borg dyspnea score, a standard assessment of exercise capacity and breathlessness in patients with lung disease. See Guyatt, G. Sullivan, M. et al. (Canada Medical Assoc. J. Vol. 132, 1985). The Six-Minute Walk corresponds closely to the demands of everyday activity and is a safe and simple measurement of functional exercise capacity for clinical trials in patients.\nThe area used for the Six-Minute Walk test should be pre-measured at a minimum of 108 feet (33 meters) in length and at least 6 to 10 feet (2 to 3 meters) in width. The length should be marked with half-yard (0.5 meter) gradations. The area should be well ventilated with air temperature controlled at 20 to 23° C. ([…].).\nThe tester may be at the starting end of the corridor or at the midpoint of the corridor with a stop-watch. Intermittent rest periods are allowed if the patient can no longer continue. If the patient needs to rest briefly, he/she may stand or sit and then begin again when he/she is sufficiently rested but the clock will continue to run. At the end of six minutes, the tester will call “stop” while simultaneously stopping the watch and then measure the distance walked. The Borg Dyspnea Rating is then administered.\nNo other instruction or encouragement are given during the test. Eye contact with the patient should be avoided during the test. Following the walk, the person administering the test obtains a rating of dyspnea using the Borg Scale. The person uses the following dialogue:\n“I would like to use the following scale to indicate the maximal shortness of breath you had during the walk test (indicate the Borg Scale). […]"}, "[2]": {"tested_on": "VEG-F (vascular endothelium-derived growth factor)", "assay": "Serum VEG-F biomarker, patients with PAH, 12 weeks of treatment", "assay_type": "in vivo, human", "conditions": "treatment for 12 weeks", "method": "(§1) In addition, treatment with treprostinil is shown to have positive outcome in the six minute walk test described above.\n(§2) 44 patients with PAH received study drug (Remodulin or placebo). 30 patients received Remodulin and 14 received placebo. A 12-week trial was conducted. The mean dose of Remodulin received was 72.5 ng/kg/min at Week 12 (compared to 80.0 ng/kg/min placebo-equivalent). Remodulin produced an 93.0 meter median improvement in the six-minute walk compared to placebo, Hodges-Lehmann estimate, with a 95% CI of 7.0 to 187.0 (p=0.0077) from nonparametric ANCOVA.\n(§3) Baseline patients with PAH appeared to have higher-than-normal levels of MMP-9, Ang-2, VEG-F, and PDGF (matrix metalloproteinase 9, angiopoetin-2, vascular endothelium-derived growth factor, and platelet-derived growth factor, respectively)."}, "[3]": {"tested_on": "MMP-9 (matrix metalloproteinase 9)", "assay": "MMP-9 biomarker, patients with PAH, 12 weeks of treatment", "assay_type": "in vivo, human", "conditions": "treatment for 12 weeks", "method": "as §1, §2, §3\nFurther, there was a statistically significant correlation between the degree of decrease in Ang-2 and the degree of improvement in the six-minute walk test."}, "[4]": {"tested_on": "PDGF (platelet-derived growth factor)", "assay": "PDGF biomarker, patients with PAH, 12 weeks of treatment", "assay_type": "in vivo, human", "conditions": "treatment for 12 weeks", "method": "as §1, §2, §3"}, "Ang-2 (angiopoetin-2)": {"tested_on": "Ang-2 (angiopoetin-2)", "assay": "Serum Ang-2 biomarker, patients with PAH, 12 weeks of treatment", "assay_type": "in vivo, human", "conditions": "treatment for 12 weeks", "method": "as §1, §2, §3"}, "[5]": {"tested_on": "lung myeloid dendritic cells", "conditions": "literature (Idzko, 2007), cited from earlier work"}}}
{"compound": "CCCCC[C@H](O)/C=C/[C@@H]1[C@H]2C/C(=C/CCCC(=O)O)O[C@H]2C[C@H]1O", "note": "[PGI2]", "values": [{"measurement": "effect on airway smooth muscle proliferation", "setting": "airway smooth muscle", "result": "antiproliferative effect"}]}
{"compound": "CCCCC[C@H](O)CC[C@@H]1[C@H]2Cc3cccc(OCC(=O)[O-])c3C[C@H]2C[C@H]1O.[Na+]", "note": "[Remodulin]", "values": [{"measurement": "median improvement in the six-minute walk compared to placebo, Hodges-Lehmann estimate", "setting": "[1]; mean dose 72.5 ng/kg/min at Week 12, 95% CI of 7.0 to 187.0, p=0.0077, nonparametric ANCOVA", "result": 93.0, "unit": "meter"}, {"measurement": "Borg Dyspnea score, median improvement over placebo", "setting": "[1]; p=0.23", "result": 2.0}, {"measurement": "combined ranking of 6MW/Borg Score Index", "setting": "[1]; vs placebo, p=0.0023", "result": "significantly improved"}, {"measurement": "serum VEG-F", "setting": "[2]", "result": "significantly decreased"}, {"measurement": "degree of change in MMP-9", "setting": "[3]", "result": "not significant"}, {"measurement": "PDGF", "setting": "[4]", "result": "strong trend toward decreased"}, {"measurement": "serum Ang-2", "setting": "Ang-2 (angiopoetin-2)", "result": "significantly decreased"}]}
{"compound": "CC#CCC(C)[C@H](O)/C=C/[C@@H]1[C@H]2C/C(=C/CCCC(=O)O)C[C@H]2C[C@H]1O", "note": "(stereo partly shown) [iloprost]", "values": [{"measurement": "anti-inflammatory effects in a mouse model of asthma", "setting": "[5]", "result": "anti-inflammatory effects"}, {"measurement": "induction of allergen-specific Th2 response in mediastinal lymph nodes", "setting": "[5]; mouse model of asthma", "result": "abolishing the induction"}]}
